Assay results: ChEMBL document CHEMBL1201862, “PubChem BioAssay data set” (2004)
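Tested at 5 concentrations; 48 h exposure; 96-well plates; endpoints linearly interpolated, else capped at highest concentration. GI50 = concentration required for 50% inhibition of growth.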 Calls of active or inactive are those of the source. Cut-off read from the data, not from the text of the source: active = GI50 up to about 1.1 µM and inactive = higher.

Assays:
Assay in all cases: inhibition of tumour cell growth, NCI panel, 48 h
HOP-62 = test system: HOP-62
786-0 = test system: 786-0
A549 = test system: A549
RPMI-8226 = test system: RPMI-8226
T47D = test system: T47D
SF-539 = test system: SF-539
SK-OV-3 = test system: SK-OV-3
PC-3 = test system: PC-3
SK-MEL-5 = test system: SK-MEL-5
HCT-15 = test system: HCT-15
KM12 = test system: KM12
Hs-578T = test system: Hs-578T
UACC-62 = test system: UACC-62
NCI-H460 = test system: NCI-H460
RXF 393 = test system: RXF 393
MDA-MB-231 = test system: MDA-MB-231
SF-295 = test system: SF-295
MCF7 = test system: MCF7
SR = test system: SR

Structure (SMILES) | GI50 (HOP-62) | GI50 (786-0) | GI50 (A549) | GI50 (RPMI-8226) | GI50 (T47D) | GI50 (SF-539) | GI50 (SK-OV-3) | GI50 (PC-3) | GI50 (SK-MEL-5) | GI50 (HCT-15) | GI50 (KM12) | GI50 (Hs-578T) | GI50 (UACC-62) | GI50 (NCI-H460) | GI50 (RXF 393) | GI50 (MDA-MB-231) | GI50 (SF-295) | GI50 (MCF7) | GI50 (SR)
C/C(=N\Nc1nc2ccccc2[nH]1)c1cnccn1 | 0.619 µM (active) | 0.263 µM (active) | 1.88 µM (inactive) | 0.533 µM (active) | 0.437 µM (active) | 0.713 µM (active) | 0.607 µM (active) | 3.92 µM (inactive) | 0.881 µM (active) | 0.313 µM | 1.12 µM (active) | 19.8 µM (inactive) | 0.652 µM (active) | 0.394 µM (active) | 0.392 µM (active) | 2.88 µM (inactive) | 1.77 µM (inactive) | 0.542 µM (active) | 
CC1=C2C(=O)NN=C2CCN1c1ccc(Br)cc1 | > 100 µM (inactive) | > 100 µM (inactive) | > 100 µM (inactive) |  | 70.3 µM (inactive) | > 100 µM (inactive) | > 100 µM (inactive) | > 100 µM (inactive) | > 100 µM (inactive) | 93.5 µM | > 100 µM (inactive) | > 100 µM (inactive) | > 100 µM (inactive) | > 100 µM (inactive) |  | > 100 µM (inactive) | > 100 µM (inactive) | > 100 µM (inactive) | 
Clc1ccc(-c2nnc(C34CC5CC(CC(C5)C3)C4)o2)cc1 | > 100 µM (inactive) | > 100 µM (inactive) | > 100 µM (inactive) | > 100 µM (inactive) | > 100 µM (inactive) | > 100 µM (inactive) | > 100 µM (inactive) | > 100 µM (inactive) | > 100 µM (inactive) | > 100 µM |  | > 100 µM (inactive) | > 100 µM (inactive) | > 100 µM (inactive) | > 100 µM (inactive) | > 100 µM (inactive) | > 100 µM (inactive) |  | > 100 µM (inactive)
CC(O[Si](c1ccccc1)(c1ccccc1)C(C)(C)C)[C@H](NC(=O)OC(C)(C)C)C(=O)O[Si](c1ccccc1)(c1ccccc1)C(C)(C)C (stereo partly specified) | 18.2 µM (inactive) | 13.2 µM (inactive) | 11 µM (inactive) | 10.9 µM (inactive) | 5.41 µM (inactive) |  | 16.3 µM (inactive) | 8.38 µM (inactive) | 15.7 µM (inactive) | 5.24 µM | 9.91 µM (inactive) | 19.2 µM (inactive) |  | 11.5 µM (inactive) | 13 µM (inactive) |  | 8.04 µM (inactive) | 17.9 µM (inactive) | 12.3 µM (inactive)
COCN1C(=O)[C@@H]2C[C@@H](OC/C=C/CBr)CN2C(=O)c2ccccc21 | 22.7 µM (inactive) | 21.5 µM (inactive) | 17.1 µM (inactive) |  | 19.5 µM (inactive) | 17.5 µM (inactive) | 33.3 µM (inactive) | 17.1 µM (inactive) | 14.4 µM (inactive) | 17.9 µM | 22 µM (inactive) | 26.5 µM (inactive) | 19 µM (inactive) |  | 14 µM (inactive) | 17.5 µM (inactive) | 22.3 µM (inactive) | 5.78 µM (inactive) | 
Nc1ccn([C@H]2CO[C@@H](CO)[C@@H]2O)c(=O)n1 | > 100 µM (inactive) | > 100 µM (inactive) |  | > 100 µM (inactive) | > 100 µM (inactive) | > 100 µM (inactive) | > 100 µM (inactive) | > 100 µM (inactive) | > 100 µM (inactive) | > 100 µM | > 100 µM (inactive) |  | > 100 µM (inactive) | > 100 µM (inactive) | > 100 µM (inactive) | > 100 µM (inactive) | > 100 µM (inactive) | > 100 µM (inactive) | > 100 µM (inactive)
COC1C(N(C)C)=C(c2ccccc2)C(=O)N2CCc3ccccc3C12 (stereo unspecified) | > 100 µM (inactive) | > 100 µM (inactive) | > 100 µM (inactive) |  | > 100 µM (inactive) | > 100 µM (inactive) | > 100 µM (inactive) | > 100 µM (inactive) | > 100 µM (inactive) | > 100 µM | > 100 µM (inactive) | > 100 µM (inactive) | > 100 µM (inactive) |  | > 100 µM (inactive) | > 100 µM (inactive) | > 100 µM (inactive) | > 100 µM (inactive) | 
COC(=O)C1=CSC2(S1)C(C(=O)OC)=CSc1c2ssc1=O (stereo unspecified) | 3.06 µM (inactive) | 1.57 µM (inactive) | 7.43 µM (inactive) | 1.55 µM (inactive) | 2.14 µM (inactive) | 1.57 µM (inactive) | 9.42 µM (inactive) | 2.22 µM (inactive) | 2.24 µM (inactive) | 1.54 µM | 3.9 µM (inactive) | 2.36 µM (inactive) | 1.96 µM (inactive) | 6.15 µM (inactive) | 1.92 µM (inactive) | 1.85 µM (inactive) | 16.3 µM (inactive) | 1.75 µM (inactive) | 
C=C(C)[C@@H]1CCC2=C[C@H](OC2=O)[C@@]2(C)C[C@@H]2C(=O)/C=C(/C)C(=O)[C@H]1OC(C)=O | 34.6 µM (inactive) | 11.4 µM (inactive) | 29.2 µM (inactive) | 4.12 µM (inactive) | 5.64 µM (inactive) | 7.13 µM (inactive) | > 51.9 µM (inactive) | 13 µM (inactive) | 16.2 µM (inactive) | 12.7 µM | 17.7 µM (inactive) | 16.9 µM (inactive) | 24.2 µM (inactive) | 30.1 µM (inactive) | 16 µM (inactive) | 36.4 µM (inactive) | 42.6 µM (inactive) | 4.52 µM (inactive) | 
COc1cccc2c1C(=O)c1c(O)c3c(c(O)c1C2=O)CC(O)(C(C)=O)CC3OC1OC(COC(C)=O)C(OC(C)=O)C(OC(C)=O)C1OC(C)=O (stereo unspecified) | 10.2 µM (inactive) | 12.1 µM (inactive) | > 100 µM (inactive) |  | 38.8 µM (inactive) | 16.8 µM (inactive) | 32.7 µM (inactive) | > 100 µM (inactive) | 23.9 µM (inactive) | 47.2 µM | 52.7 µM (inactive) | 14.5 µM (inactive) | 33.2 µM (inactive) | > 100 µM (inactive) | 0.269 µM (active) | 17.7 µM (inactive) | 17.2 µM (inactive) | 65.2 µM (inactive) | 5.38 µM (inactive)
O=C(c1cccs1)N(C(=S)OCCOc1ccccc1)c1ccccc1 | 28.2 µM (inactive) | 25.2 µM (inactive) | 28.1 µM (inactive) | 20.9 µM (inactive) | 35.8 µM (inactive) | 34.3 µM (inactive) | 30.3 µM (inactive) | 24.7 µM (inactive) |  | 27.4 µM | 26 µM (inactive) | 58.6 µM (inactive) | 18.2 µM (inactive) | 34.8 µM (inactive) | 23.6 µM (inactive) | 24.3 µM (inactive) | 26.5 µM (inactive) | 20.2 µM (inactive) | 
CN1C/C(=C\c2cccs2)C(O)/C(=C/c2cccs2)C1 (stereo unspecified) | > 100 µM (inactive) | > 100 µM (inactive) | > 100 µM (inactive) | 20.2 µM (inactive) | 25.8 µM (inactive) |  | > 100 µM (inactive) | > 100 µM (inactive) | > 100 µM (inactive) | > 100 µM | > 100 µM (inactive) | > 100 µM (inactive) | > 100 µM (inactive) | > 100 µM (inactive) | > 100 µM (inactive) | > 100 µM (inactive) | > 100 µM (inactive) | 48.5 µM (inactive) | 
CC1(O)C(=O)OC2CC([C@]3(O)CCC4[C@@H]5C[C@H]6O[C@]67[C@@H](O)C=CC(=O)[C@]7(C)C5CC[C@@]43C)C1(C)C2 (stereo partly specified) | 52.7 µM (inactive) | 12.9 µM (inactive) | 38.7 µM (inactive) | 3.24 µM (inactive) | 5.97 µM (inactive) | 18.2 µM (inactive) | 47.9 µM (inactive) | 20.1 µM (inactive) | 16.9 µM (inactive) | 17.9 µM | 27 µM (inactive) | 26.3 µM (inactive) | 14.9 µM (inactive) | 30.5 µM (inactive) | 3.63 µM (inactive) | 16.7 µM (inactive) | 34.6 µM (inactive) |  | 2.69 µM (inactive)
Cc1nn2c(C(=O)N/N=C/c3ccc([N+](=O)[O-])cc3)c(C)nc2s1 | 46.5 µM (inactive) | > 100 µM (inactive) | > 100 µM (inactive) |  | > 100 µM (inactive) | 31.4 µM (inactive) | 28.4 µM (inactive) |  | > 100 µM (inactive) | > 100 µM | > 100 µM (inactive) | > 100 µM (inactive) | > 100 µM (inactive) | > 100 µM (inactive) | > 100 µM (inactive) | 24.1 µM (inactive) | > 100 µM (inactive) | 90.4 µM (inactive) | 
COC(=O)C(C(=O)C(=O)Nc1c(C)cccc1C)c1cnc2ccccc2n1 (stereo unspecified) |  | > 100 µM (inactive) | > 100 µM (inactive) | > 100 µM (inactive) |  |  | > 100 µM (inactive) |  | > 100 µM (inactive) | > 100 µM | > 100 µM (inactive) |  | > 100 µM (inactive) | > 100 µM (inactive) | > 100 µM (inactive) |  | > 100 µM (inactive) |  | > 100 µM (inactive)
CC1(C)OCC(COC(=O)NCn2cc(-c3ccccc3)nn2)O1 (stereo unspecified) | > 100 µM (inactive) | > 100 µM (inactive) | > 100 µM (inactive) | > 100 µM (inactive) |  | > 100 µM (inactive) |  | > 100 µM (inactive) | > 100 µM (inactive) | > 100 µM | > 100 µM (inactive) |  |  | > 100 µM (inactive) |  | > 100 µM (inactive) | > 100 µM (inactive) | > 100 µM (inactive) | > 100 µM (inactive)
O=C(O)c1ccccc1/C=C1\Cc2ccccc2C1=O | > 100 µM (inactive) | > 100 µM (inactive) | > 100 µM (inactive) | 71.4 µM (inactive) | > 100 µM (inactive) | > 100 µM (inactive) |  | > 100 µM (inactive) | 47.2 µM (inactive) | > 100 µM | > 100 µM (inactive) | > 100 µM (inactive) | > 100 µM (inactive) | > 100 µM (inactive) | > 100 µM (inactive) |  | > 100 µM (inactive) | > 100 µM (inactive) | > 100 µM (inactive)
